For this assay, the target named is T1, hFXR (Homo sapiens, UniProt Q96RI1).
T1 construct: expressed in transfected cells; host or cells: CV-1 cells
T1 sequence (Q96RI1 1-486): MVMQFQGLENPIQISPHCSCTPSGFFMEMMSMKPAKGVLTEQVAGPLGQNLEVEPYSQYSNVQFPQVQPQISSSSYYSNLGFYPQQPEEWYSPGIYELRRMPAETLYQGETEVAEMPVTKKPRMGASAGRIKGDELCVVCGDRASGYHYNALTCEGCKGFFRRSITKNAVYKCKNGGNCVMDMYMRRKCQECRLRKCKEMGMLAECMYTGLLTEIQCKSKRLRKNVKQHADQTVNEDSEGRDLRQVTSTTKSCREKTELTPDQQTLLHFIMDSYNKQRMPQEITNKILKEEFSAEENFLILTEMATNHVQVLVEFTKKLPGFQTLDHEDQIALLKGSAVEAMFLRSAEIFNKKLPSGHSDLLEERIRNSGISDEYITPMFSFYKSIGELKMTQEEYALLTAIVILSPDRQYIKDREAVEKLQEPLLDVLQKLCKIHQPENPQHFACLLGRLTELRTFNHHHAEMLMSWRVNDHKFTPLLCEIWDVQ
T1 sequence (P19793 1-462 partner): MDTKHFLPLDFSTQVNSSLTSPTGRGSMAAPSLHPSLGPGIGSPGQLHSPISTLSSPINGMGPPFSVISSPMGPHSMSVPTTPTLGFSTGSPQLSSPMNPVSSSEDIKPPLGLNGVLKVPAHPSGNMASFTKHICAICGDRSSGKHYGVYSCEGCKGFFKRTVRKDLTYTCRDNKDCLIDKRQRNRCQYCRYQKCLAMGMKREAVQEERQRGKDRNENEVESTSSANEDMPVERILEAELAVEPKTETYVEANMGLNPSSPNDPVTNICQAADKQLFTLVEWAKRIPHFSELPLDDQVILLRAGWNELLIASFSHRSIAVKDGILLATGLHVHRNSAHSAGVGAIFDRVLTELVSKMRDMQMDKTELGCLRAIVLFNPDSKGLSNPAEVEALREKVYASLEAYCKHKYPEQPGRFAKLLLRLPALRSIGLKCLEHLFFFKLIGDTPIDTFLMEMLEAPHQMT
The assay can be described thus: In Vitro FXR Assay (TK): hFXR/hRXR TK-ECRE-luc reporter in transfected CV-1 cells. Type of assay: cell-based. The following applies: CV-1 cells transfected with hFXR, hRXR, 18 hrs incubation, luminescence, maximum efficacy <25% of Fexarmine control also classified as ‘+’. As to the method: Example B-1: In Vitro FXR Assay (TK)
CV-1 cells were seeded at a density of 2,000,000 cells in a T175 flask with DMEM+10% charcoal double-stripped FBS and incubated at 37° C. in 5% CO2 for 18 h (O/N).
After 18 h of incubation, the medium in the T175 flask was changed with fresh DMEM+10% charcoal super-stripped serum. In a polypropylene tube, 2500 μL OptiMEM (Life Technologies, Cat #31985-062) was combined with expression plasmids for hFXR, hRXR, TK-ECRE-luc and pCMX-YFP. The tube was then briefly vortexed and incubated at room temperature for 5 minutes. Transfection reagent (X-tremeGENE HP from Roche, Cat #06 366 236 001) was added to the OptiMEM/plasmid mixture vortexed and incubated at room temperature for 20 minutes. Following incubation, the transfection reagent/DNA mixture complex was added to cells in the T175 flask and the cells were incubated at 37° C. in 5% CO2 for 18 h (0/N).
Compounds were serially diluted in DMSO and added to transfected CV-1 cells. The cells were then incubated for 18 hrs. The next day cells were lysed and examined for luminescence.

Take `COc1ccc([C@H]2CC[C@H](CN(c3cccc(-c4coc(C(C)C)n4)c3)C(=O)[C@H]3CC[C@H](O)CC3)CC2)nc1C` [Compound 10.05, trans-4-Hydroxy-N-(3-(2-isopropyloxazol-4-yl)phenyl)-N-((trans-4-(5-methoxy-6-methylpyridin-2-yl)cyclohexyl)methyl) cyclohexanecarboxamide]: the concentration for a half-maximal effect (EC50) (usually the concentration needed to bring the measured effect to its halfway point) was no more than 500 nM.

`COc1ccc([C@H]2CC[C@H](CN(c3cccc(-c4cc(C5CC5)no4)c3)C(=O)[C@H]3CC[C@H](O)CC3)CC2)cc1C` [Compound 9.13, trans-N-(3-(3-cyclopropylisoxazol-5-yl)phenyl)-4-hydroxy-N-((trans-4-(4-methoxy-3-methylphenyl)cyclohexyl)methyl) cyclohexanecarboxamide] returned an EC50 of no more than 500 nM. In the case of `COc1ccc([C@H]2CC[C@H](CN(c3cccc(-c4coc(C(C)C)n4)c3)C(=O)[C@H]3CC[C@H](O)CC3)CC2)nc1C#N` [Compound 10.20, trans-N-((trans-4-(6-Cyano-5-methoxypyridin-2-yl)cyclohexyl)methyl)-4-hydroxy-N-(3-(2-isopropyloxazol-4-yl)phenyl)cyclohexanecarboxamide], the EC50 is no more than 500 nM. The result for `Cn1ccc2cc([C@H]3CC[C@H](CN(c4cccc(-c5coc(C6CC6)n5)c4)C(=O)[C@H]4CC[C@H](O)CC4)CC3)ncc21` [Compound 10.21] reads 500 to 1000 nM; that for `COc1ccc([C@H]2CC[C@H](CN(c3cc(-c4coc(C5CC5)n4)ccn3)C(=O)[C@H]3CC[C@H](O)CC3)CC2)cc1C#N` [Compound 10.12, trans-N-((trans-4-(3-Cyano-4-methoxyphenyl)cyclohexyl)methyl)-N-(4-(2-cyclopropyloxazol-4-yl)pyridine-2-yl)-4-hydroxycyclohexanecarboxamide], no more than 500 nM. The result for `CN(C)c1ccc([C@H]2CC[C@H](CN(c3cccc(-c4coc(C5CC5)n4)c3)C(=O)[C@H]3CC[C@H](O)CC3)CC2)cn1` [Compound 10.02, trans-N-(3-(2-Cyclopropyloxazol-4-yl)phenyl)-N-((trans-4-(6-(dimethylamino)pyridine-3-yl)cyclohexyl)methyl)-4-hydroxycyclohexanecarboxamide] reads no more than 500 nM.

Compound `COc1ccc([C@H]2CC[C@H](CN(c3cc(-c4coc(C5CC5)n4)ccn3)C(=O)[C@H]3CC[C@H](O)CC3)CC2)cc1C` [Compound 10.07, trans-N-(4-(2-Cyclopropyloxazol-4-yl)pyridine-2-yl)-4-hydroxy-N-((trans-4-(4-methoxy-3-methylphenyl)cyclohexyl)methyl) cyclohexanecarboxamide] came in with a 50% effective concentration (EC50) of no more than 500 nM. As to `COc1ccc([C@H]2CC[C@H](CN(c3cccc(-c4coc(C5CC5)n4)c3)C(=O)[C@H]3CC[C@H](O)CC3)CC2)cc1C#N` [Compound 10.11, trans-N-((trans-4-(3-Cyano-4-methoxyphenyl)cyclohexyl)methyl)-N-(3-(2-cyclopropyloxazol-4-yl)phenyl)-4-hydroxycyclohexanecarboxamide], the concentration giving a half-maximal response (EC50) is no more than 500 nM.

`COc1ccc([C@H]2CC[C@H](CN(c3cccc(-c4ncn(C)n4)c3)C(=O)[C@H]3CC[C@H](O)CC3)CC2)cc1C` [Compound 2.10, trans-4-Hydroxy-N-((trans-4-(4-methoxy-3-methylphenyl)cyclohexyl)methyl)-N-(3-(1-methyl-1H-1,2,4-triazol-3-yl)phenyl)cyclohexanecarboxamide] had a concentration for a half-maximal effect (EC50) of no less than 1000 nM. For `COc1ccc([C@H]2CC[C@H](CN(c3cccc(-c4coc(C(C)C)n4)c3)C(=O)[C@H]3CC[C@H](O)CC3)CC2)cc1C` [Compound 10.04, trans-4-Hydroxy-N-(3-(2-isopropyloxazol-4-yl)phenyl)-N-((trans-4-(4-methoxy-3-methylphenyl)cyclohexyl)methyl) cyclohexanecarboxamide], the EC50 was no more than 500 nM. The result for `COc1ccc([C@H]2CC[C@H](CN(c3cccc(-c4coc(C5CC5)n4)c3)C(=O)[C@H]3CC[C@H](O)CC3)CC2)nc1C` [Compound 10.06, trans-N-(3-(2-Cyclopropyloxazol-4-yl)phenyl)-4-hydroxy-N-((trans-4-(5-methoxy-6-methylpyridin-2-yl)cyclohexyl)methyl) cyclohexanecarboxamide] reads no more than 500 nM.

`COc1ccc([C@H]2CC[C@H](CN(c3cccc(-c4cnc(N(C)C)nc4)c3)C(=O)[C@H]3CC[C@H](O)CC3)CC2)cc1C` [Compound 1.09, trans-N-(3-(2-(Dimethylamino)pyrimidin-5-yl)phenyl)-4-hydroxy-N-((trans-4-(4-methoxy-3-methylphenyl)cyclohexyl)methyl)cyclohexanecarboxamide] gave a concentration giving a half-maximal response (EC50) of no more than 500 nM. `COc1ncc([C@H]2CC[C@H](CN(c3cc(-c4coc(C5CC5)n4)ccn3)C(=O)[C@H]3CC[C@H](O)CC3)CC2)cc1Cl` [Compound 10.24, trans-N-((trans-4-(5-Chloro-6-methoxypyridin-3-yl)cyclohexyl)methyl)-N-(4-(2-cyclopropyloxazol-4-yl)pyridin-2-yl)-4-hydroxycyclohexanecarboxamide]: the EC50 was no more than 500 nM.

`COc1ccc([C@H]2CC[C@H](CN(c3cccc(-c4nc(C)co4)c3)C(=O)[C@H]3CC[C@H](O)CC3)CC2)cc1C` [Compound 9.03, trans-4-Hydroxy-N-((trans-4-(4-methoxy-3-methylphenyl)cyclohexyl)methyl)-N-(3-(4-methyloxazol-2-yl)phenyl)cyclohexanecarboxamide] showed a 50% effective concentration (EC50) of no less than 1000 nM. Under `COc1ccc([C@H]2CC[C@H](CN(c3cccc(C#Cc4cn[nH]n4)c3)C(=O)[C@H]3CC[C@H](O)CC3)CC2)cc1C` [Compound 14.01, trans-N-(3-((2H-1,2,3-Triazol-4-yl)ethynyl)phenyl)-4-hydroxy-N-((trans-4-(4-methoxy-3-methylphenyl)cyclohexyl)methyl) cyclohexanecarboxamide] stands no more than 500 nM. Consider `COc1ccc([C@H]2CC[C@H](CN(c3cccc(C#Cc4nncs4)c3)C(=O)[C@H]3CC[C@H](O)CC3)CC2)cc1C` [Compound 11.02, trans-N-(3-((1,3,4-Thiadiazol-2-yl)ethynyl)phenyl)-4-hydroxy-N-((trans-4-(4-methoxy-3-methylphenyl)cyclohexyl)methyl) cyclohexanecarboxamide], for which the EC50 was no more than 500 nM. The result for `COc1ccc([C@H]2CC[C@H](CN(c3cccc(-c4cc(C5CC5)on4)c3)C(=O)[C@H]3CC[C@H](O)CC3)CC2)cc1C` [Compound 9.14, trans-N-(3-(5-Cyclopropylisoxazol-3-yl)phenyl)-4-hydroxy-N-((trans-4-(4-methoxy-3-methylphenyl)cyclohexyl)methyl) cyclohexanecarboxamide] reads no more than 500 nM.

For the compound `COc1ccc([C@H]2CC[C@H](CN(c3cccc(C#Cc4cn(C)nn4)c3)C(=O)[C@H]3CC[C@H](O)CC3)CC2)cc1C` [Compound 12.02, trans-4-Hydroxy-N-((trans-4-(4-methoxy-3-methylphenyl)cyclohexyl)methyl)-N-(3-((1-methyl-1H-1,2,3-triazol-4-yl)ethynyl)phenyl)cyclohexanecarboxamide], the EC50 is no more than 500 nM. Compound `COc1ccc([C@H]2CC[C@H](CN(c3cccc(-c4coc(C5CC5)n4)c3)C(=O)[C@H]3CC[C@H](O)CC3)CC2)nc1C#N` [Compound 10.14, trans-N-((trans-4-(6-Cyano-5-methoxypyridin-2-yl)cyclohexyl)methyl)-N-(3-(2-cyclopropyloxazol-4-yl)phenyl)-4-hydroxycyclohexanecarboxamide] returned an EC50 of no more than 500 nM. With `COc1ccc(-c2cccc(N(C[C@H]3CC[C@H](c4ccc(OC)c(C)c4)CC3)C(=O)[C@H]3CC[C@H](O)CC3)c2)nc1` [Compound 1.03, trans-4-Hydroxy-N-((trans-4-(4-methoxy-3-methylphenyl)cyclohexyl)methyl)-N-(3-(5-methoxypyridin-2-yl)phenyl)cyclohexanecarboxamide], the EC50 is no more than 500 nM.

(Values after patent publication US20200131129A1, “FARNESOID X RECEPTOR AGONISTS AND USES THEREOF” (Metacrine, Inc., priority 2017, published 2020).)
